Results reported in ChEMBL document CHEMBL1268975, “Building a MCHR1 homology model provides insight into the receptor-antagonist contacts that are important for the development of new anti-obesity agents” (Bioorg Med Chem, 2010).

These molecules were tested against Histamine H3 receptor (Homo sapiens, UniProt Q9Y5N1) (assay: not given).
Chain of Histamine H3 receptor (Q9Y5N1 whole entry): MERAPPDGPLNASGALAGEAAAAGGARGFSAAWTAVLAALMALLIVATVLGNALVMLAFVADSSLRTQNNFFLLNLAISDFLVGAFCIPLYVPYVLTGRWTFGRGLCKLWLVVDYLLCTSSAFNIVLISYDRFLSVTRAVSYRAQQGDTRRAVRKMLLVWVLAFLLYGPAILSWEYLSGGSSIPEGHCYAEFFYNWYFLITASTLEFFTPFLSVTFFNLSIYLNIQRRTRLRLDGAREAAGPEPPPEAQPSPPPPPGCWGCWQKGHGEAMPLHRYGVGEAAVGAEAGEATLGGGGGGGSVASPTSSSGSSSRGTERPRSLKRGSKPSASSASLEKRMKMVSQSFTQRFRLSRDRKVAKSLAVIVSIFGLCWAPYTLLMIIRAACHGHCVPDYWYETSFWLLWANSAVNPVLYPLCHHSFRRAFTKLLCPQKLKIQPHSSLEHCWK
`Cc1ccc(CN2CCC(CCN(Cc3ccc(-c4cccc(C#N)c4)cc3)C(=O)NC(C)C)CC2)cc1` gave a Ki of 853 nM. In the case of `CCC(CO)(CO)NC(=O)N(CCC1CCN(Cc2ccc(C)cc2)CC1)Cc1ccc(-c2ccc(OC)cc2)cc1`, the Ki is reported as 899 nM. `COc1ccc(-c2ccc(CN(CC(=O)C(C)(C)O)C(=O)NC3CCN(Cc4ccc(C)cc4)CC3)cc2)cc1` was tested, and the Ki was 581 nM. Work on `Cc1ccc(CN2CCC(NC(=O)N(CC(=O)C(C)(C)O)Cc3ccc(-c4ccc(F)cc4)cc3)CC2)cc1` yielded a Ki of 1420 nM. For `CCC(COC(C)=O)(COC(C)=O)NC(=O)N(CCC1CCN(Cc2ccc(C)cc2)CC1)Cc1ccc(-c2ccccc2)cc1`, the Ki was 807 nM. Molecule `COc1ccc(-c2ccc(CN(CCC3CCN(Cc4ccc(C)cc4)CC3)C(=O)NC(C)(C)CO)cc2)cc1` has a Ki of 9260 nM. For `Cc1ccc(CN2CCC(CCN(Cc3ccc(-c4cccc(C#N)c4)cc3)C(=O)NC(C)(C)CO)CC2)cc1`, the Ki was 1160 nM. `Cc1ccc(CN2CCC(CCN(Cc3ccc(-c4ccccc4)cc3)C(=O)NC(C)C)CC2)cc1` gave a Ki of over 1000 nM. `CC(=O)OCC(C)(C)NC(=O)N(CCC1CCN(Cc2ccc(C)cc2)CC1)Cc1ccc(-c2ccccc2)cc1` was tested, and the Ki was 1130 nM. For `Cc1ccc(CN2CCC(NC(=O)NCc3ccc(-c4ccccc4)cc3)CC2)cc1`, the Ki was over 1000 nM. `CCC(COC(C)=O)(COC(C)=O)NC(=O)N(CCC1CCN(Cc2ccc(C)cc2)CC1)Cc1ccc(-c2ccc(F)cc2)cc1` showed a Ki of 548 nM. In the case of `COc1ccccc1-c1ccc(CN(CCC2CCN(Cc3ccc(C)cc3)CC2)C(=O)NC(C)(C)COC(C)=O)cc1`, the Ki is reported as 1050 nM. With `COc1ccccc1-c1ccc(CN(CC(=O)C(C)(C)O)C(=O)NC2CCN(Cc3ccc(C)cc3)CC2)cc1` the Ki was 9990 nM. Work on `CCC(COC(C)=O)(COC(C)=O)NC(=O)N(CCC1CCN(Cc2ccc(C)cc2)CC1)Cc1ccc(-c2ccc(OC)cc2)cc1` yielded a Ki of 779 nM. For `CCC(CO)(CO)NC(=O)N(CCC1CCN(Cc2ccc(C)cc2)CC1)Cc1ccc(-c2cccc(C#N)c2)cc1`, the Ki was 8800 nM. Molecule `Cc1ccc(CN2CCC(NC(=O)N(CC(=O)C(C)(C)O)Cc3ccc(-c4ccccc4)cc3)CC2)cc1` has a Ki of over 1000 nM. In the case of `Cc1ccc(CN2CCC(NC(=O)N(CC(=O)C(C)(C)O)Cc3ccc(-c4cccc(C#N)c4)cc3)CC2)cc1`, the Ki is reported as 2800 nM. In the case of `COc1ccccc1-c1ccc(CN(CCC2CCN(Cc3ccc(C)cc3)CC2)C(=O)NC(C)(C)CO)cc1`, the Ki is reported as 6680 nM. For `CCC(COC(C)=O)(COC(C)=O)NC(=O)N(CCC1CCN(Cc2ccc(C)cc2)CC1)Cc1ccc(-c2ccccc2OC)cc1`, the Ki was 629 nM. For `COc1ccccc1-c1ccc(CNC(=O)NC2CCN(Cc3ccc(C)cc3)CC2)cc1`, the Ki was over 1000 nM. `COc1ccc(-c2ccc(CN(CCC3CCN(Cc4ccc(C)cc4)CC3)C(=O)NC(C)(C)COC(C)=O)cc2)cc1` showed a Ki of 1010 nM. Molecule `CCC(COC(C)=O)(COC(C)=O)NC(=O)N(CCC1CCN(Cc2ccc(C)cc2)CC1)Cc1ccc(-c2cccc(C#N)c2)cc1` has a Ki of 1310 nM. `Cc1ccc(CN2CCC(NC(=O)NCc3ccc(-c4cccc(C#N)c4)cc3)CC2)cc1` showed a Ki of over 1000 nM. Molecule `CCC(CO)(CO)NC(=O)N(CCC1CCN(Cc2ccc(C)cc2)CC1)Cc1ccc(-c2ccccc2OC)cc1` has a Ki of 2140 nM. Work on `COc1ccccc1-c1ccc(CN(CCC2CCN(Cc3ccc(C)cc3)CC2)C(=O)NC(C)C)cc1` yielded a Ki of over 1000 nM. In the case of `Cc1ccc(CN2CCC(CCN(Cc3ccc(-c4ccc(F)cc4)cc3)C(=O)NC(C)(C)CO)CC2)cc1`, the Ki is reported as over 1000 nM. For `COc1ccc(-c2ccc(CN(CCC3CCN(Cc4ccc(C)cc4)CC3)C(=O)NC(C)C)cc2)cc1`, the Ki was 6510 nM. Work on `COc1ccc(-c2ccc(CNC(=O)NC3CCN(Cc4ccc(C)cc4)CC3)cc2)cc1` yielded a Ki of 5150 nM. `CC(=O)OCC(C)(C)NC(=O)N(CCC1CCN(Cc2ccc(C)cc2)CC1)Cc1ccc(-c2cccc(C#N)c2)cc1` showed a Ki of 1630 nM. Work on `CCC(CO)(CO)NC(=O)N(CCC1CCN(Cc2ccc(C)cc2)CC1)Cc1ccc(-c2ccc(F)cc2)cc1` yielded a Ki of over 1000 nM. Work on `CC(=O)OCC(C)(C)NC(=O)N(CCC1CCN(Cc2ccc(C)cc2)CC1)Cc1ccc(-c2ccc(F)cc2)cc1` yielded a Ki of 2080 nM.

The molecules below were run against Melanin-concentrating hormone receptor 1 (Homo sapiens, UniProt Q99705) (assay: biochemical).
Chain of Melanin-concentrating hormone receptor 1 (Q99705 whole entry): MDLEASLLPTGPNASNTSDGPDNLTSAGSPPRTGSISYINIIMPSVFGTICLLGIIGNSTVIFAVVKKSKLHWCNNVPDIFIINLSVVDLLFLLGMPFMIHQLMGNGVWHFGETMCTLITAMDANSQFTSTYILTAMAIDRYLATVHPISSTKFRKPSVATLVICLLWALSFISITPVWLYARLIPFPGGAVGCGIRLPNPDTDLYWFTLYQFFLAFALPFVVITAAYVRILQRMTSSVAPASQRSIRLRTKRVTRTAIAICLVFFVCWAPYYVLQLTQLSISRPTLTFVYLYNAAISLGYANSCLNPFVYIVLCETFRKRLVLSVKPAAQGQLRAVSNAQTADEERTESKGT
Type: cell-based, HEK293
Description: Displacement of [3H]SNAP-7941 from human MCHR1 expressed in HEK cells
`COc1ccc(-c2ccc(CN(CC(=O)C(C)(C)O)C(=O)NC3CCN(Cc4ccc(C)cc4)CC3)cc2)cc1` was tested, and the Ki was over 1000 nM. In the case of `Cc1ccc(CN2CCC(NC(=O)N(CC(=O)C(C)(C)O)Cc3ccc(-c4ccccc4)cc3)CC2)cc1`, the Ki is reported as over 1000 nM. With `COc1ccccc1-c1ccc(CN(CCC2CCN(Cc3ccc(C)cc3)CC2)C(=O)NC(C)C)cc1` the Ki was over 1000 nM.
